Among the data in patent US9101628B2, “Methods and composition of treating a flaviviridae family viral infection” (The Board of Trustees of the Leland Stanford Junior …, priority 2007, dated 2015) are activity values, retold here.

This experiment relates to HCV RNA replication. The experiment in a line: RNA replication inhibition assay (luciferase reporter-linked HCV genome). Particulars: Hepatitis C virus, percentage of untreated control population; for activity at 5 µM: read-out: Residual Luciferase activity, 5 micromolar; for activity at 10 µM: read-out: Residual Luciferase activity, 10 micromolar. For orientation: A reporter such as luciferase makes a cellular process visible.

For the molecule `c1ccc2c(c1)nc(CN1CCCC1)n2CC1CCNCC1` [Compound 36], the activity at 5 µM was < 80% and the activity at 10 µM was > 80%.
As for `CCCN(CCC)Cc1nc2ccccc2n1Cc1ccc(Cl)cc1` [Compound 5], the activity at 5 µM was < 80% and the activity at 10 µM was < 55%.
For `Cc1cc2nc(-c3ccc[nH]c3=O)n(Cc3ccc(Cl)cc3)c2cc1C` [Compound 158], in that order: < 80% and < 80%.
The like results for `OC[C@H]1CCCN1Cc1nc2ccccc2n1Cc1ccc(Cl)cc1` [Compound 95] were, in that order, > 80% and < 80%.
For `Cc1cc2ncn(Cc3ccc(Cl)c(Cl)c3)c2cc1C` [Compound 131], in that order: < 80% and < 55%.
Turning to `FC(F)Oc1ccc(Cn2c(CN3CCCC3)nc3ccccc32)cc1` [Compound 42], the activity at 5 µM is > 80% and the activity at 10 µM was < 80%.
The like results for `COC(=O)c1cccc(Cn2c(CN3CCCC3)nc3ccccc32)c1` [Compound 16] were, in that order, > 80% and > 80%.
As to `Cc1nc2cc(Cl)ccc2n1Cc1ccccc1` [Compound 125], the activity at 5 µM was < 80%.
`Clc1ccc(CCn2cnc3ccccc32)cc1` [Compound 46]: the activity at 5 µM is > 80% and the activity at 10 µM was < 80%.
In the case of `Cc1ccc(Cn2c(CN3CCCC3)nc3ccccc32)cc1` [Compound 40], the activity at 5 µM was < 80% and the activity at 10 µM is < 80%.
For the molecule `Cc1cc2c(ncn2Cc2ccc(Cl)cc2)c(NC(=O)C(C)C)c1C` [Compound 69], the activity at 5 µM was > 80% and the activity at 10 µM was < 80%.
In the case of `Fc1cc2ncn(Cc3ccc(Cl)cc3)c2cc1F` [Compound 94], the activity at 5 µM is < 80% and the activity at 10 µM was < 55%.
Regarding `Cc1cc2nc(CC3CCCC3)n(Cc3ccc(Cl)cc3)c2cc1C` [Compound 96], the activity at 5 µM is < 80% and the activity at 10 µM is < 55%.
The like results for `CCCCNC(=O)Nc1c(C)c(C)cc2c1ncn2Cc1ccc(Cl)cc1` [Compound 72] were, in that order, > 80% and > 80%.
On to `Clc1ccc(Cn2cnc3ccncc32)cc1` [Compound 83], for which the activity at 5 µM was < 80% and the activity at 10 µM was < 80%.
Take `CC(C)c1nc2ccccc2n1Cc1ccc(Cl)cc1` [Compound 119]: the activity at 5 µM is < 80% and the activity at 10 µM was < 55%.
Turning to `Cc1ccc2c(c1)nc(CN1CCCC1)n2Cc1ccc(Cl)cc1` [Compound 28], the activity at 5 µM is > 80% and the activity at 10 µM was < 55%.
Regarding `Cc1cc2nc([C@H](C)N3CCC[C@@H]3CO)n(Cc3ccc(Cl)cc3)c2cc1C` [Compound 91], the activity at 5 µM is > 80% and the activity at 10 µM is > 80%.
For `O=C(O)c1ccc2c(c1)ncn2Cc1ccc(Cl)cc1` [Compound 44], the activity at 5 µM was < 80% and the activity at 10 µM was > 80%.
The like results for `Clc1ccc(Cn2c(Cc3ccccc3)nc3ccccc32)cc1` [Compound 120] were, in that order, < 80% and < 55%.
The like results for `COc1ccc(Cn2cnc3ccccc32)cc1` [Compound 144] were, in that order, < 55% and < 55%.
In the case of `Cc1ccc2c(ncn2Cc2ccc(Cl)cc2)c1C` [Compound 59], the activity at 5 µM was < 55% and the activity at 10 µM is < 55%.
For `OC[C@@H]1CCCN1Cc1nc2ccccc2n1Cc1ccc(Cl)cc1` [Compound 25], the activity at 5 µM is < 80% and the activity at 10 µM was < 55%.
The like results for `COC(=O)c1ccc(Cn2c(/C=C/c3ccccc3)nc3cc(C)c(C)cc32)cc1` [Compound 160] were, in that order, < 80% and < 20%.
For `CCOC(=O)CSc1nc2cc(S(C)(=O)=O)ccc2n1Cc1ccccc1` [Compound 153], in that order: > 80% and < 80%.
For `CC(C)c1nc2ccccc2n1Cc1ccc(Cl)cc1Cl` [Compound 121], in that order: > 80% and < 20%.
In the case of `Cc1cc2nc([C@H](C)N3CCC[C@H]3CO)n(Cc3ccc(Cl)cc3)c2cc1C` [Compound 89], the activity at 5 µM is < 55% and the activity at 10 µM was < 55%.
As for `CCCC(=O)NCc1nc2ccccc2n1Cc1ccccc1C` [Compound 109], the activity at 5 µM is > 80% and the activity at 10 µM was > 80%.
For the molecule `N#Cc1ccc(Cn2cnc3ccccc32)cc1` [Compound 137], the activity at 5 µM is < 80% and the activity at 10 µM was < 80%.
Regarding `Oc1ccc(Cn2cnc3ccccc32)cc1` [Compound 143], the activity at 5 µM is > 80% and the activity at 10 µM was < 80%.
Turning to `Clc1ccc(Cn2cnc3ncccc32)cc1` [Compound 86], the activity at 5 µM was > 80% and the activity at 10 µM is < 80%.
For `CC(C)(C)C(=O)NCc1nc2ccccc2[nH]1` [Compound 115], in that order: < 80% and > 80%.
The like results for `FC(F)(F)c1nc2ccccc2n1Cc1ccc(Cl)cc1` [Compound 123] were, in that order, > 80% and < 80%.
For `Cc1cc2nc(CN3CCC[C@H]3CN3CCCC3)n(Cc3ccc(Cl)cc3)c2cc1C` [Compound 50], in that order: < 20% and < 20%.
In the case of `Cc1cc2c(ncn2Cc2ccc(Cl)cc2)c([N+](=O)[O-])c1C` [Compound 66], the activity at 5 µM was < 80% and the activity at 10 µM was < 55%.
Regarding `Clc1ccc(Cn2cnc3cnccc32)cc1` [Compound 84], the activity at 5 µM was < 80% and the activity at 10 µM was > 80%.
Regarding `CC(=O)N1CCCC(Cn2c(CN3CCCC3)nc3ccccc32)C1` (centres unmarked) [Compound 34], the activity at 5 µM was > 80% and the activity at 10 µM is > 80%.
For the molecule `Cc1cccc(Cn2c(C)nc3c(NS(C)(=O)=O)c(C)c(C)cc32)c1` [Compound 77], the activity at 5 µM was > 80% and the activity at 10 µM was < 80%.
On to `Cc1cc2c(ncn2C)c(NS(C)(=O)=O)c1C` [Compound 79], for which the activity at 5 µM was < 80% and the activity at 10 µM is > 80%.
`Cc1cc2c(ncn2Cc2ccc(Cl)cc2)c(N)c1C` [Compound 67]: the activity at 5 µM was < 80% and the activity at 10 µM was < 80%.
With `Cc1cc2nc(-c3ccc(=O)[nH]c3)n(Cc3ccc(Cl)cc3)c2cc1C` [Compound 159], the activity at 5 µM was < 80% and the activity at 10 µM was < 55%.
The like results for `Clc1ccc(Cn2c(CN3CCCCCC3)nc3ccccc32)cc1` [Compound 27] were, in that order, < 80% and < 55%.
For the molecule `COC(=O)c1ccc(Cn2cnc3ccccc32)cc1` [Compound 139], the activity at 5 µM is < 80% and the activity at 10 µM was < 55%.
The like results for `Clc1ccc(Cn2cnc3cc4c(cc32)OCCO4)cc1` [Compound 64] were, in that order, < 80% and < 80%.
The like results for `Cc1cc2c(ncn2Cc2ccc(Cl)cc2)c(NC(=O)c2ccccc2)c1C` [Compound 71] were, in that order, > 80% and > 80%.
For `N#Cc1cnc2c(ccn2Cc2ccc(Cl)cc2)c1` [Compound 103], in that order: > 80% and < 55%.
Take `Cc1ccc(Cn2cnc3ccccc32)cc1` [Compound 142]: the activity at 10 µM was < 55%.
Turning to `O[C@@H]1CCN(Cc2nc3ccccc3n2Cc2ccc(Cl)cc2)C1` [Compound 24], the activity at 5 µM was > 80% and the activity at 10 µM is > 80%.
Regarding `Cc1cc2c(ncn2Cc2ccccc2)c(N)c1C` [Compound 146], the activity at 5 µM was < 80% and the activity at 10 µM is < 80%.
Consider `Clc1ccc(Cn2c(CN3CCCC3)nc3ccccc32)s1` [Compound 32], for which the activity at 5 µM is < 80% and the activity at 10 µM was < 80%.
In the case of `CCCCCc1nc2ccccc2n1Cc1ccc(Cl)cc1` [Compound 116], the activity at 5 µM is < 55% and the activity at 10 µM is < 20%.
Regarding `CCN(CC)c1c(C)c(C)cc2c1ncn2Cc1ccc(Cl)cc1` [Compound 73], the activity at 5 µM is < 80% and the activity at 10 µM was < 55%.
For `O=C1CCCN1Cc1nc2ccccc2n1Cc1ccc(Cl)cc1` [Compound 12], the activity at 5 µM was < 80% and the activity at 10 µM was < 80%.
`Cc1cc2nc(CN3CCC[C@@H]3CO)n(Cc3ccc(Cl)cc3)c2cc1C` [Compound 48]: the activity at 5 µM was > 80% and the activity at 10 µM was < 80%.
For `Cc1cc2nc([C@@H](C)N3CCC[C@@H]3CO)n(Cc3ccc(Cl)cc3)c2cc1C` [Compound 92], in that order: < 55% and < 20%.
For `COc1ccc2c(c1)ncn2Cc1ccc(Cl)cc1` [Compound 56], in that order: < 80% and < 55%.
On to `Cc1cccc(Cn2cnc3c(NS(=O)(=O)C(F)(F)F)c(C)c(C)cc32)c1` [Compound 78], for which the activity at 5 µM was < 55% and the activity at 10 µM is < 20%.
For `Cc1cc2c(ncn2Cc2ccc(Cl)cc2)c(NS(=O)(=O)c2cccc(Cl)c2)c1C` [Compound 82], the activity at 5 µM was > 80% and the activity at 10 µM was > 80%.
As to `Cc1ccccc1Cn1cnc2c(NS(C)(=O)=O)c(C)c(C)cc21` [Compound 74], the activity at 5 µM is > 80% and the activity at 10 µM is > 80%.
For `Cc1cc2c(ncn2Cc2ccc(Cl)cc2)c(CS(C)(=O)=O)c1C` [Compound 81], the activity at 5 µM is > 80% and the activity at 10 µM is < 80%.
`Fc1cc2ncn(Cc3ccc(Cl)cc3)c2cc1Cl` [Compound 55]: the activity at 5 µM was < 80% and the activity at 10 µM is < 80%.
In the case of `COc1ccc(Cn2c(C)nc3c(N)c(C)c(C)cc32)cc1` [Compound 147], the activity at 5 µM was < 80% and the activity at 10 µM was < 80%.
